Assay results published in patent US20080286235A1, “Antimicrobials and related methods” (priority 2006, published 2008).
In brackets after ≈: the same amount, converted by molar mass.

Legend:
[1] = system: C3H/10T1/2 mouse embryo fibroblasts; conditions: for Highest Non-Cytotoxic Concentration: mouse; for LC50 value (reduces the plating efficiency to 50% of control cells) / CC50: 10T1/2 cells; for CC50: read-out: LC50 value
in vitro = conditions: mouse
ringworm = assay: Cat ringworm treatment; assay type: in vivo, kittens; conditions: Solution A 1:16 topically three times daily for three days

With CC(=O)Nc1ccc(O)cc1 [Acetaminophen] the “Highest Non-Cytotoxic Concentration” value [1] was 0.05 mg/mL and the CC50 (in vitro) was 500 µg/mL (≈ 3310 µM).

In the case of CC(=O)Oc1ccccc1C(=O)O [Aspirin], the “Highest Non-Cytotoxic Concentration” value [1] is reported as 0.25 mg/mL.

In the case of OC1c2cc3ccc4cccc5ccc(c2C2OC2C1O)c3c45 (stereo not drawn) [BaP-anti-diol epoxide], the “LC50 value (reduces the plating efficiency to 50% of control cells)” value [1] is reported as 0.0755 µg/mL and the CC50 [1] is reported as 0.25 µM.

COC(=O)Nc1nc2cc(C(=O)c3ccc(F)cc3)ccc2[nH]1 [Flubendazole] showed a CC50 (in vitro) of 0.15 µg/mL (≈ 0.479 µM).

For COC1=CC(=O)C[C@@H](C)[C@]12Oc1c(Cl)c(OC)cc(OC)c1C2=O [Griseofulvin], the “outcome of ringworm treatment” value (ringworm) was “no success”.

With CC(=O)ON(C(C)=O)c1ccc2c(c1)Cc1ccccc1-2 [N-acetoxy-acetyl aminofluorene] the “LC50 value (reduces the plating efficiency to 50% of control cells)” value [1] was 3.99 µg/mL and the CC50 [1] was 15 µM.

For C[C@@H]1O[C@@H](O[C@H]2C[C@@H](O)[C@]3(CO)[C@H]4[C@H](O)C[C@]5(C)[C@@H](C6=CC(=O)OC6)CC[C@]5(O)[C@@H]4CC[C@]3(O)C2)[C@H](O)[C@H](O)[C@H]1O [Ouabain], the CC50 (in vitro) was 500 µg/mL (≈ 855 µM).

With CCOc1ccc(NC(C)=O)cc1 [Phenacetin] the “Highest Non-Cytotoxic Concentration” value [1] was 0.18 mg/mL and the CC50 (in vitro) was 1000 µg/mL (≈ 5580 µM).
